Key:
primary human T-cells [1] = experiment: IL2 secretion measurements in CD3-stimulated T-cells; format: cell-based; settings: CD3 condition; for Emax IL2 (% activation): 24 hours, 20 μM reference compound A1 = 100%; for EC50: IL2 secretion after 24 hours, read-out: Tcell IL2 CD3 EC50
Description: As readouts for T-cell activation, 1L2 secretion after 24 hours and proliferation after 5 days was measured. Increases in 1L2 secretion and proliferation upon compound treatment were assessed as the % of the maximum of reference compound A1. WO 2016/139181 discloses reference compound A1 as example 70. As a counter screen and to make sure that no unwanted TCR-independent activation was triggered, PBS conditions were run for all compounds.
Expanded primary human T-cells were thawed and cultured in RPMI 1640 (Gibco, #61870-010)+5% human serum (HS, Sigma, #H3667)+1 mM Sodium Pyruvate (Gibco, #11360-039)+50 μM 2-mercaptoethanol (Gibco, #31350-010) and 1× Pen-Strep (Life Technologies, #15140122) medium at density of 2 Mio/ml for 3 hours in 5% CO2, 37° C. and 95% humidity. For coating of plates, […] or PBS++ with CD3 antibody (concentration depending on donor and determined by CD3 titrations) was added 100 μl/well to Poly-D Lysine coated 96-well plates. Plates were sealed and incubated at room temperature for 3 hours on a table-top rocking platform. After incubation, plates were washed once with PBS−− and filled with 40 μl/well culture medium only. Compounds were then added (see next section) to medium only plates. After 3 hours of culturing the T-cells, cells were filtered through a cell strainer (Miltenyi Biotech, #130-041-407), counted again and concentration was adjusted to 1.25 Mio/ml.
Cells were then seeded 80 μl/well to the 40 μl/well including dispensed compounds according to plate layout. By adding cells, compounds were further diluted 1:3, and resulting in 100 k cells/120 μl/well. After 24 hours 40 μl of supernatant was collected carefully from the top while not disturbing the cells and transferred into a round bottom 96 well plate. Collected and frozen supernatant was used for detection of IL2 using the IL-2 Human ProQuantum Immunoassay Kit (Invitrogen) or using the Human IL-2 ELISA Kit (Thermo Fisher).
(§1) Compounds were added in a 5 or 6 pt dose response with the Tecan D300e Digital Dispenser, all conditions 3 times more concentrated than the end-concentration, since cells are added afterwards (80 μl cells to 40 μl prepared medium with treatment). The DR was starting at 20 μM or 10 μM final top concentration and a dilution factor of 3.333. The positive control was the reference compound A1 that was added in a dose response as well, additionally to 3 wells of only 20 μM representing the positive stimulator control. All wells were normalized with DMSO to a final concentration of 0.6% (0.2% end-concentration).
The immunoassay is done following the manufacturer's manual (Invitrogen, #A35603). Additional information: For the immunoassay, MicroAmp™ EnduraPlate™ Optical 384-Well plates are used. Frozen supernatant is thawed and centrifuged for 5 minutes at 1000×g, both steps at 4° C. After centrifugation, required sample amount is taken from the top, and in a separate LightCycler V-bottom plate (working plate) diluted with assay dilution buffer, dilution factor depending on the PBS or CD3 condition but at least 1:3. IL-2 standard and blanks are prepared in the same V-bottom plate, standard with a range of […] (extended version). After preparation, 5 μl of sample dilutions or standard/blanks are transferred to the optical 384-well plate (assay plate) and the 10 μl reaction protocol is being followed. For measurement, the QuantStudio 12K Flex system is used. Raw data is extracted and IL-2 concentrations are calculated with the Thermo Fisher online app (apps.thermofisher.com/apps/proquantum).
ELISA is done following the manufacturer's manual (Thermo Fisher Scientific, #88-7025-88). Additional information: For the ELISA Nunc MaxiSorp 96 well plates are used. Frozen supernatant is thawed and centrifuged for 5 minutes at 1000×g, both steps at 4° C. […]

[2] = biological target: DGKalpha (hDGKalpha(1-735)-N-His) (Homo sapiens (Human), UniProt P23743); experiment: In vitro DGK inhibition assay, ADP-Glo (in house), DGKalpha; format: biochemical; settings: DLG liposomes, 25 μM ATP, 4 nM enzyme, 1 hour reaction
Description: (§2) DGK α and ζ kinases use ATP to phosphorylate the substrate 1,2-dilauroyl-sn-glycerol (DLG, incorporated in the liposomes). ATP is converted to ADP as a result of this enzymatic reaction.
(§3) After the kinase reaction, an ATP-depletion reagent is added to terminate the kinase reaction and deplete any remaining ATP, leaving only ADP. Second, a detection reagent is added to simultaneously convert ADP to ATP and allow the newly synthesized ATP to be converted to light using a coupled luciferase/luciferin reaction.
(§4) Purification of both enzymes was performed as previously described by Takahashi et al., PeerJ, 2018 (Takahashi, D.; Sakane, F. Expression and purification of human diacylglycerol kinase alpha from baculovirus-infected insect cells for structural studies. PeerJ 2018, 6, No. e5449).
(§5) A concentrated liposome solution was prepared in assay buffer without DTT and BSA: 2 mM of DLG in 21 mM of total liposome (2 mM DLG/8 mM PS/11 mM PC). The reaction mixtures contain the assay buffer with a final DLG concentration of 125 uM ATP concentrations of 25 μM (for DGKA assay) or 50 μM (for DGKZ assay). The reactions were started by addition of DGK α and ζ kinases at 4 nM and 2 nM final concentrations, respectively. After 1 hour reaction, the amount of ADP formed was detected with the ADP-Glo kinase assay (Promega) according to the manufacturer instructions. Compounds were added in 11-points dose response, starting at […], 1:3 dilutions, with a final DMSO concentration of 2%. The multidrop combi was used as a liquid handler and luminescence was read with 0.5 s by the envision reader (PE).

[3] = biological target: DGKzeta (hDGKzeta(1-928)-N-His) (Homo sapiens (Human), UniProt Q13574); experiment: In vitro DGK inhibition assay, ADP-Glo (in house), DGKzeta; format: biochemical; settings: DLG liposomes, 50 μM ATP, 2 nM enzyme, 1 hour reaction
Description: as §2, §3, §4, §5

primary human T-cells [4] = experiment: T-cell proliferation assay (CellTiter-Glo); format: cell-based; settings: CD3 condition; for Emax proliferation (% activation): 5 days, 20 μM reference compound A1 = 100%; for EC50: proliferation after 5 days, CellTiter-Glo, read-out: Tcell Proliferation CD3 EC50
Description: For coating of plates, PBS++ only or PBS++ with CD3 antibody (concentration depending on donor and determined by CD3 titrations) is added 100 μl/well to Poly-D Lysine coated 96-well plates. Plates are sealed and incubated at room temperature for 3 hours on a table-top rocking platform. After incubation, plates are washed once with PBS−− and filled with 40 μl/well culture medium only. Compounds are then added (see next section) to medium only plates. After 3 hours of culturing the T-cells, cells are filtered through a cell strainer (Miltenyi Biotech, #130-041-407), counted again and concentration is adjusted to 1.25 Mio/ml.
Cells are then seeded 80 μl/well to the 40 μl/well including dispensed compounds according to plate layout. By adding cells, compounds are further diluted 1:3, and resulting in 100 k cells/120 μl/well. After 48 hours 40 μl of supernatant is collected carefully from the top while not disturbing the cells. Cells are assessed for proliferation 5 days later by measuring […] using CellTiterGlo (Promega).
as §1, with “The DR was starting at 20 μM or 10 μM final top concentration and a dilution factor of 3.333.” left out
After 5 days, for detection of ATP which is directly proportional to the number of cells present per well, the CellTiter-Glo® 2.0 Reagent is used. After visual control for toxicity or precipitations of the tested compounds, the plates are equilibrated to room temperature for 45 minutes. CellTiter-Glo® 2.0 Reagent is equilibrated to room temperature as well. After equilibration, an equal amount of CellTiter-Glo reagent is added to the cells (80 μl/well) with an electronic multichannel pipette. Plates are placed on a rocking platform for 15 minutes at room temperature. After incubation, the bottom of the plates is sealed with backing tape. Luminescence is measured with PHERAstar FSX (interval time 0.5 sec, gain 3000, focal height 15 mm) and exported as CSV file for analysis in Genedata screener.
Calculations and Data Reporting CD3 and PBS plates were analysed separately in Genedata Screener using Roche Normalization PCT_POS_CTRL with DMSO set as Neutral Control and 20 μM of the reference compound A1 set as Stimulator Control/100%.
For CD3 conditions EC50 and Emax of the fitted sigmoidal curve were reported. If no curve could be fitted, the EC50 was reported as blank field and the Emax was based on individual data points. […] Compounds which activate unstimulated cells (see IL2 measurements) or compounds which negatively affected viability were flagged.

Chain of DGKzeta (hDGKzeta(1-928)-N-His) (Q13574 whole entry): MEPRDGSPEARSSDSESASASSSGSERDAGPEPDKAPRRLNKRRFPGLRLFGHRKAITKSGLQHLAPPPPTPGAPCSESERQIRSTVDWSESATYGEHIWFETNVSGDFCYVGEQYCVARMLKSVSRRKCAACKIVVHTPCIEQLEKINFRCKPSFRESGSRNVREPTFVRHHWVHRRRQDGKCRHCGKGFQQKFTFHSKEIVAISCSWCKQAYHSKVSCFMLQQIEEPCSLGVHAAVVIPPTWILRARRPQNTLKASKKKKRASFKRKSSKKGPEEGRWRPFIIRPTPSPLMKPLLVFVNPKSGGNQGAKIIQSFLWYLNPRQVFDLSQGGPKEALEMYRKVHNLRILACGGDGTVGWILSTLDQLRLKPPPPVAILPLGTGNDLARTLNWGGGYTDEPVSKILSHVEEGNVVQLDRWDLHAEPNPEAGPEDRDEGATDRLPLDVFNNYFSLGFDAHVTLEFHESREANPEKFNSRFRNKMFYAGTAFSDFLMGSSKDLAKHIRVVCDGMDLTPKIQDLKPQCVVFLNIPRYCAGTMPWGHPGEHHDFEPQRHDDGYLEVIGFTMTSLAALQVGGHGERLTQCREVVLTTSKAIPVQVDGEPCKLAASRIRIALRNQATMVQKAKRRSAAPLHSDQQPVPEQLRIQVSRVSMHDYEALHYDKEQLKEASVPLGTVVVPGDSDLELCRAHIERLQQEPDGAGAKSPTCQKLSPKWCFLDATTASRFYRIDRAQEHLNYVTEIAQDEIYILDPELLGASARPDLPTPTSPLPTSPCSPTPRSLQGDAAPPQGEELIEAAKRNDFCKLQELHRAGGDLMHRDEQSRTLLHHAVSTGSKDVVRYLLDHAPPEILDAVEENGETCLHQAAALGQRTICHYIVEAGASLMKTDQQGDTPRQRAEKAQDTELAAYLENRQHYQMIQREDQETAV
Chain of DGKalpha (hDGKalpha(1-735)-N-His) (P23743 whole entry): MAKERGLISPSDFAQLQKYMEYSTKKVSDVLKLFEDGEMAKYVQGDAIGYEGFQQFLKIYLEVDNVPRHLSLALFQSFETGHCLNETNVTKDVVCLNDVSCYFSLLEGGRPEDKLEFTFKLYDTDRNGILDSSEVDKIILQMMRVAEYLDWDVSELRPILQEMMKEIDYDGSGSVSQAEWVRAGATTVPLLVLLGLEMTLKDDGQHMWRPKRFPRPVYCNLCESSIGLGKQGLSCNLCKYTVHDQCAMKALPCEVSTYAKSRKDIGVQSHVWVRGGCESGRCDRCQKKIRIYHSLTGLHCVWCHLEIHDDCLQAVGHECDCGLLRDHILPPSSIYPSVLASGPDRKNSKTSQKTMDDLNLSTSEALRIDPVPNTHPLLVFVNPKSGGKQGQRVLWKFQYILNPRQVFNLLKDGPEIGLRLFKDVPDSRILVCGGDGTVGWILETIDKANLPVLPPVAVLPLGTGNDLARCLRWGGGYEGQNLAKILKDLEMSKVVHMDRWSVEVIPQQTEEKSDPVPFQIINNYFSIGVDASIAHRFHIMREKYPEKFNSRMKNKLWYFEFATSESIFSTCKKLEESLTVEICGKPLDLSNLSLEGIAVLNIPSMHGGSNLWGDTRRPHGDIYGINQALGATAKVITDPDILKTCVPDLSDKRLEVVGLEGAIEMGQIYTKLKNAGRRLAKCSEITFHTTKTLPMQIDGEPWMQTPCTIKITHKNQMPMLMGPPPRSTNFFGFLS

| Molecule | EC50 (primary human T-cells [1]; Homo sapiens, T-cell) [µM] | IC50 [3] [µM] | Emax IL2 (% activation) (primary human T-cells [1]) | IC50 [2] [µM] | Emax proliferation (% activation) (primary human T-cells [4]) | EC50 (primary human T-cells [4]; Homo sapiens, T-cell, 120 h) [µM] | EC50 (primary human T-cells [1]) [µM] | EC50 (primary human T-cells [4]) [µM] |
| --- | --- | --- | --- | --- | --- | --- | --- | --- |
| COC(=O)N1CC2CC(c3cnnc(-c4cc5c(cc4F)S(=O)(=O)C[C@H](N)C(=O)N5Cc4ccc(Cl)cc4)n3)(C2)C1 [Example 18, methyl 1-[3-[(3R)-3-amino-5-[(4-chlorophenyl)methyl]-8-fluoro-1,1,4-trioxo-2,3-dihydro-1λ6,5-benzothiazepin-7-yl]-1,2,4-triazin-5-yl]-3-azabicyclo[3.1.1]heptane-3-carboxylate] | 1.83 | 1.13 | 61 | 4.59 | 79 | 2.72 |  |  |
| (3R)-3-amino-5-(4-chlorobenzyl)-8-fluoro-1,1-diketo-7-[5-(trifluoromethoxy)-3-pyridyl]-2,3-dihydro-1λ6,5-benzothiazepin-4-one [Example 5] |  |  | 100 | > 62.5 |  |  | 0.604 | 0.319 |
| CC(C)(C)c1ccnc(-c2cc3c(cc2F)S(=O)(=O)C[C@H](N)C(=O)N3Cc2ccc(Cl)cc2)c1 [Example 1, (3R)-3-amino-7-(4-tert-butyl-2-pyridyl)-5-[(4-chlorophenyl)methyl]-8-fluoro-1,1-dioxo-2,3-dihydro-1λ6,5-benzothiazepin-4-one] | 7.38 |  | 56 |  |  | 1.72 |  |  |
| CC(C)(C)c1cc(-c2cc3c(cc2F)S(=O)(=O)C[C@H](N)C(=O)N3Cc2ccc(Cl)cc2)ccn1 [Example 3, (3R)-3-amino-7-(2-tert-butyl-4-pyridyl)-5-[(4-chlorophenyl)methyl]-8-fluoro-1,1-dioxo-2,3-dihydro-1λ6,5-benzothiazepin-4-one] | 0.829 |  | 56 |  |  | 1.51 |  |  |
| COc1cc(-c2cc3c(cc2F)S(=O)(=O)C[C@H](N)C(=O)N3Cc2ccc(Cl)cc2)cnn1 [Example 6, (3R)-3-amino-5-[(4-chlorophenyl)methyl]-8-fluoro-7-(6-methoxypyridazin-4-yl)-1,1-dioxo-2,3-dihydro-1λ6,5-benzothiazepin-4-one] | > 10 |  | 14 |  |  | 1.41 |  |  |

More lines, main results first:

| EC50 (primary human T-cells [1]; Homo sapiens, T-cell) [µM] | IC50 [3] [µM] | Molecule | Emax IL2 (% activation) (primary human T-cells [1]) | IC50 [2] [µM] | Emax proliferation (% activation) (primary human T-cells [4]) | EC50 (primary human T-cells [4]; Homo sapiens, T-cell, 120 h) [µM] | EC50 (primary human T-cells [1]) [µM] | EC50 (primary human T-cells [4]) [µM] |
| --- | --- | --- | --- | --- | --- | --- | --- | --- |
| 0.449 | 0.65 | N[C@H]1CS(=O)(=O)c2cc(F)c(-c3nncc(N4CCC(F)(F)CC4)n3)cc2N(Cc2ccc(Cl)cc2)C1=O [Example 17, (3R)-3-amino-5-[(4-chlorophenyl)methyl]-7-[5-(4,4-difluoro-1-piperidyl)-1,2,4-triazin-3-yl]-8-fluoro-1,1-dioxo-2,3-dihydro-1λ6,5-benzothiazepin-4-one] | 62 | 7.88 | 104 | 0.342 |  |  |
|  | 17.2 | CC(C)(C)c1cc(-c2cc3c(cc2F)S(=O)(=O)C[C@@H](N)C(=O)N3Cc2ccc(-c3noc(C(F)(F)F)n3)cc2)cnn1 [Example 35] | 480 | 19.9 | 132 |  | 3.13 | 1.04 |
| 1.82 |  | N[C@H]1CS(=O)(=O)c2cc(F)c(-c3nccc(C(F)(F)F)n3)cc2N(Cc2ccc(Cl)cc2)C1=O [Example 10, (3R)-3-amino-5-[(4-chlorophenyl)methyl]-8-fluoro-1,1-dioxo-7-[4-(trifluoromethyl)pyrimidin-2-yl]-2,3-dihydro-1λ6,5-benzothiazepin-4-one] | 44 |  |  | 3.57 |  |  |
| 5.71 |  | CS(=O)(=O)C1(c2cnnc(-c3cc4c(cc3F)S(=O)(=O)C[C@H](N)C(=O)N4Cc3ccc(Cl)cc3)n2)CC1 [Example 19, (3R)-3-amino-5-[(4-chlorophenyl)methyl]-8-fluoro-7-[5-(1-methylsulfonylcyclopropyl)-1,2,4-triazin-3-yl]-1,1-dioxo-2,3-dihydro-1λ6,5-benzothiazepin-4-one] | 45 |  |  | 2.09 |  |  |

— patent publication US20250236617A1, “BICYCLIC TETRAHYDROTHIAZEPINE DERIVATIVES” (Hoffmann-La Roche Inc., priority 2022, published 2025)
